The text below walks through data of US20150111933A1, “Deuterated Thiazolidinone Analogues as Agonists for Follicle Stimulating Hormone Receptor” (Merck Patent GmbH, priority 2012, published 2015).

Structures are written as SMILES.

In one data set the target is T1, FSHR (Homo sapiens, UniProt P23945).
T1 construct: expressed in transfected cells; host or cells: CHO (Cho-FSHR-LUC-1-1-43)
T1 sequence (P23945 18-695): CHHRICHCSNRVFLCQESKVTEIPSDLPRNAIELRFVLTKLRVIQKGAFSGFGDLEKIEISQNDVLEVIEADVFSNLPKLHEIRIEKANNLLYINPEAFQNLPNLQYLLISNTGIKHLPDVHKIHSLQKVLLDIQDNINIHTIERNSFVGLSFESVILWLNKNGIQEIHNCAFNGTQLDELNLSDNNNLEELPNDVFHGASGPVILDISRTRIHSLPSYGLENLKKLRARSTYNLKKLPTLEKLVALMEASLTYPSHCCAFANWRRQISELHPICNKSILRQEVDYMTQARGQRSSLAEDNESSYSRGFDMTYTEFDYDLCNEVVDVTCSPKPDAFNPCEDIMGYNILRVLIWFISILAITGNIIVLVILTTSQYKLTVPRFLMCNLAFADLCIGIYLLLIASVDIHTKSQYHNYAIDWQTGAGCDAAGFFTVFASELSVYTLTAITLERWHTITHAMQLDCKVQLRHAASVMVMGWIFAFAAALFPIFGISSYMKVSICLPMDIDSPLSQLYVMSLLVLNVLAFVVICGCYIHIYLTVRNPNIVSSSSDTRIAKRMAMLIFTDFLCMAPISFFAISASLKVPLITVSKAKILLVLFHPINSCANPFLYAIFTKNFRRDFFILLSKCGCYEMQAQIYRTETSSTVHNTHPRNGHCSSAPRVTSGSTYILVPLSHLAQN
In words: EC50 of cyclic AMP production in CHO FSHR cells + EC20 FSH (HTRF). The format is cell-based. As to conditions: Cho-FSHR-LUC-1-1-43 cells; for Emax: 1 h, read-out: EC50 of cAMP production (% effect); for EC50: + EC20 FSH (0.265 pM), 200 μM IBMX, 1 h at 37° C., read-out: EC50 of cAMP production. The method, then:
EC50 of Cyclic AMP Production in CHO FSHR Cells+EC20 FSH
2500 Cho-FSHR-LUC-1-1-43 cells were plated per well in 5 μL of phenol red free DMEM/F12+1% FBS. Cells were plated in 384 well, solid white low volume plates (Greiner 784075) by Multidrop. Cells were assayed by adding […] of 2×EC20 FSH/IBMX in DMEM/F12+0.1% BSA) by Multidrop to 2 μL of test compound stamped in 384 well plates (compounds are diluted 1:50). The final FSH concentration was 0.265 pM, and the final IBMX concentration was 200 μM. The compound plate map was as follows: Column 1: 2 μL of DMSO; Column 2: 2 μL of DMSO; Columns 3-12 and 13-24: 2 μL of test compound, diluted 1:4 in 100% DMSO, or 2 μL of FSH, diluted 1:4 in DMEM/F12+0.1% BSA. The starting concentration for FSH was 50 nM (final concentration was 0.5 nM). Furthermore, Column 23 contained 2 μL of EC100 FSH reference (100×) (diluted in DMEM/F12+0.1% BSA) at a final concentration of 0.5 nM, and Column 24 contained 2 μL of 1 mM AS707664/2 reference compound 2. 5 μL of compound+EC20 FSH mixture were transferred to cell plates (1:2 dilution into 5 μL of cell media) The plates were incubated at 37° C. for 1 h. 10 μL of mixed HTRF (CisBio #62AM4PEC) reagents were added per well and incubated at room temperature for 1 h. The plates were read on Envision using the cAMP HTRF—low volume 384 well protocol. The readout was the calculated fluorescence ratio (665 nm/620 nm).

Data set [1] in a line: Intrinsic clearance (Clint) in human liver microsomes. Format: in vitro ADME. As to conditions: 0.5 mg/mL protein, NADPH, up to 30 min, first value of human/rat; for microsomal CLint at 0.8 μM: human, liver microsomes, pH 7.4, human liver microsomes. The method, then: (§1) Intrinsic Clearance (Clint) Assay Protocol:
(§2) A Tecan Genesis workstation (RSP 150/8) was used for to perform the microsomal incubations. Analysis was carried out using a Waters ACQUITY UPLC system coupled to an ABSciex API3000 mass spectrometer. Data analysis was performed using Assay Explorer (Symyx).
(§3) 0.1 M potassium phosphate buffer pH 7.4 containing 1 mM MgCl2 15 mM NADPH in phosphate buffer 4.4 mg protein/mL liver microsomes in phosphate buffer acetonitrile 20% DMSO in water
(§4) Each experiment consists of 12 test and 2 reference compounds. The reference compounds are incubated as a cocktail. Dilution of test compounds was done in 2 steps from a 10 mM DMSO stock solution. First 4 μL stock solution was added to 196 μL of 20% DMSO in potassium phosphate buffer pH 7.4. In a second step 10 μL of the first dilution were added to […] potassium phosphate buffer and 100 μL internal standard solution to a final concentration of 0.8 μM. 100 μL of the final compound dilution were aliquoted into a 96 deep well plate. 12.5 μL liver microsomes were added to each well (0.5 mg/mL final protein concentration) and the samples preincubated for 5 min at 37° C. and 800 rpm agitation.
(§5) After the preincubation, 250 μL cold acetonitrile were added to the 0 min samples to prevent a reaction. Following this, 12.5 μL NADPH solution were added to all wells to start the incubation, with the exception of the 0 min and 30 min controls without cofactor, where the NADPH was substituted for phosphate buffer.
(§6) The incubations were stopped after 5, 10, 20 and 30 min by adding 250 μL cold acetonitrile to the individual wells.
(§7) The quenched samples were then centrifuged at 4000 g for 1 h at 4° C. 100 μL of the supernatant were transferred into 96 well plates for analysis.
(§8) The metabolic stability of each compound was determined by measurement of the change in LC-MS/MS peak area over time. Assay Explorer software was used to automatically calculate the slope k of the decline. The intrinsic clearance (Clint) of each compound was then calculated according to the formula:
(§9) Clint (μL/min/mg protein)=k1000/protein concentration.

The nature of data set [2]: Intrinsic clearance (Clint) in rat liver microsomes. Format: in vitro ADME. As to conditions: 0.5 mg/mL protein, NADPH, up to 30 min, second value of human/rat; for microsomal CLint at 0.8 μM: rat, liver microsomes, pH 7.4, rat liver microsomes. The method, then:
as §1, §2, §3, §4, §5, §6, §7, §8, §9

[3] abbreviates: + EC20 FSH, % effect in brackets.

Broadly, the EC50 is the concentration needed to bring the measured effect to its halfway point. Broadly, the microsomal CLint is a measure of how fast metabolising enzymes remove a compound, apart from limits set by blood flow. As for `[2H]c1c([2H])c([2H])c(C#Cc2ccc([C@@H]3S[C@H](CC(=O)NC([2H])([2H])C([2H])([2H])c4ccc(OC([2H])([2H])[2H])c(OCC)c4)C(=O)N3c3cccc(C(N)=O)c3)cc2)c([2H])c1[2H]` (single isomer, unassigned) [Compound 10], on FSHR (setting [3]), the Emax was determined as 98%. Also, the 50% effective concentration (EC50) on FSHR was determined as 0.3 nM. Besides, the microsomal CLint at 0.8 μM in data set [1] worked out at 161 µL/min/mg; in data set [2], 23 µL/min/mg.
`[2H]C([2H])(NC(=O)C[C@H]1S[C@@H](c2ccc(C#Cc3ccccc3)cc2)N(c2cccc(C(N)=O)c2)C1=O)C([2H])([2H])c1ccc(OC)c(OCC)c1` (single isomer, unassigned) [Compound 14]: the EC50 at FSHR stood at 2 nM. Further, the “EC50 of cAMP production (% effect)” value on FSHR (+ EC20 FSH, % effect in brackets, 60 min) was “(99) %”. Besides, the “Clint (human)” value in data set [1] (human liver microsomes) worked out at 492 μL/min/mg protein. In data set [2] (rat liver microsomes), the “Clint (rat)” value was determined as 95 μL/min/mg protein.
`[2H]c1c([2H])c([2H])c(C#Cc2c([2H])c([2H])c([C@H]3N(c4cccc(C(N)=O)c4)C(=O)[C@@H](CC(=O)NC([2H])([2H])C([2H])([2H])c4ccc(OC([2H])([2H])[2H])c(OCC)c4)[S@@+]3[O-])c([2H])c2[2H])c([2H])c1[2H]` (single isomer, unassigned) [Compound 20]: the Emax on FSHR (setting [3]) came out at 103%. Further, the EC50 on FSHR turned out to be 25 nM. For the same compound, the microsomal CLint at 0.8 μM in data set [1] stood at 35 µL/min/mg; in data set [2], 18 µL/min/mg.
The corresponding values for `[2H]c1c([2H])c([2H])c(C#Cc2c([2H])c([2H])c([C@H]3N(c4cccc(C(N)=O)c4)C(=O)[C@@H](CC(=O)NC([2H])([2H])C([2H])([2H])c4ccc(OC([2H])([2H])[2H])c(OC([2H])([2H])[2H])c4)[S@@+]3[O-])c([2H])c2[2H])c([2H])c1[2H]` (single isomer, unassigned) [Compound 21] are 103%, 113 nM, 351 µL/min/mg and 241 µL/min/mg.
The corresponding values for `[2H]C([2H])(NC(=O)C[C@H]1S[C@@H](c2ccc(C#Cc3ccccc3)cc2)N(c2cccc(C(N)=O)c2)C1=O)C([2H])([2H])c1ccc(OC)c(OC)c1` [Compound 2, 3-((2S,5R)-4-oxo-5-(2-oxo-2-((1,1,2,2-d4-2-(3,4-dimethoxyphenyl)ethyl)amino)ethyl)-2-(4-(phenylethynyl)phenyl)thiazolidin-3-yl)benzamide] are 97%, 1.9 nM, 106 µL/min/mg and 24 µL/min/mg.
In the same order, the values of `[2H]C([2H])([2H])Oc1ccc(C([2H])([2H])C([2H])([2H])NC(=O)C[C@H]2S[C@@H](c3ccc(C#Cc4ccccc4)cc3)N(c3cccc(C(N)=O)c3)C2=O)cc1OC` [Compound 3, 3-((2S,5R)-4-oxo-5-(2-oxo-2-((1,1,2,2-d4-2-(3-methoxy-4-(methoxy-d3)phenyl)ethyl)amino)ethyl)-2-(4-(phenylethynyl)phenyl)thiazolidin-3-yl)benzamide] are 97%, 1.7 nM, 111 µL/min/mg and 29 µL/min/mg.
`CCOc1cc(CCNC(=O)C[C@H]2S[C@@H](c3ccc(C#Cc4ccccc4)cc3)N(c3cccc(C(N)=O)c3)C2=O)ccc1OC` [Reference compound, reference compound]: the Emax at FSHR (setting [3]) is 98%. Also, the EC50 at FSHR turned out to be 0.3 nM. For the same compound, the microsomal CLint at 0.8 μM in data set [1] was found to be 182 µL/min/mg; in data set [2] it was 120 µL/min/mg.
